According to patent US20200046671A1, “APOBEC3B MUTAGENESIS AND IMMUNOTHERAPY” (Regents of the University of Minnesota, priority 2015, published 2020):
“Also recorded” adds a separate entry of the source. Peptide text beside a SMILES is read from it. * marks the point of attachment. Cbz = O=C(OCc1ccccc1)*

Key:
Assay type in all cases: cell-based, human
[1] = tested on: PMA-induced APOBEC3B upregulation; assay: Inhibitor pretreatment before PMA induction of APOBEC3B in MCF10A cells, RT-qPCR
Procedure: PMA is a well-known agonist of PKC, but it also affects other cellular processes. To determine whether APOBEC3B induction by PMA occurs through PKC signal transduction or an alternative mechanism, a panel of existing PKC inhibitors that vary with respect to class selectivity were analyzed. MCF10A cells were pre-treated for 30 minutes with varying concentrations of the pan-PKC inhibitor G66983 (Gschwendt et al., FEBS Lett. 392(2):77-80, 1996) and then treated for six hours with PMA (25 ng/mL). […] As additional controls, MCF10A cells were pretreated in parallel with the phosphoinositol 3 kinase (PI3K) inhibitor, LY294002, and the mitogen-activated protein kinase kinase (MEK) inhibitor, U0126, prior to PMA induction (FIGS. 2B and 2C).
(§1) For induction experiments, 2.5×10^5 cells were plated in a 6-well plate 1 day prior to drug treatment. PMA was then added to the media and incubated at 37° C. with 5% CO2 for six hours unless otherwise indicated. Cells were harvested, RNA was extracted, and RT-qPCR was performed as previously reported (Refsland et al. 2010, Nucleic Acids Res 38:4274-4284). For experiments utilizing inhibitors, cells were pretreated with inhibitors 30 minutes prior to PMA induction (25 ng/mL). PMA (Thermo Fisher Scientific, Inc., Waltham, Mass.), cyclohexamide (Acros Organics, Thermo Fisher Scientific, Inc., Waltham, Mass.), G66983 (Cayman Chemical co., Ann Arbor, Mich.), LY294002 (EMD Chemicals, Merck KGaA, Darmstadt, Germany), U0126 (EMD Chemicals, Merck KGaA, Darmstadt, Germany), AEB071 (Medchemexpress, Monmouth Junction, N.J.), Go6976 (Enzo Life Sciences, Inc., Farmingdale, N.Y.), BAY 11-7082 (R&D Systems, INc., Minneapolis, Minn.), and MG132 (Thermo Fisher Scientific, Inc., Waltham, Mass.) were stored as recommended. NIKi/Compound 31 was synthesized as described (Li et al., 2013, Bioorganic & Medicinal Chemistry Letters 23:1238-1244).

[2] = tested on: APOBEC family members; assay: mRNA levels of the other APOBEC family members after PMA treatment, RT-qPCR; conditions: MCF10A cells
Procedure: (§2) A panel of immortalized normal human epithelial cells lines and breast cancer cell lines was treated with the model PKC-NFκB pathway activator PMA (or equal amounts of DMSO as a negative control) and previously validated reverse transcription quantitative PCR (RT-qPCR) assays were used to measure mRNA levels of all eleven human APOBEC family members. APOBEC3B mRNA was induced specifically by PMA treatment of several lines including the immortalized normal breast epithelial cell line MCF10A (FIG. 6). Under standard cell culture conditions, MCF10A expresses low levels of APOBEC3B and APOBEC3F, even lower levels of APOBEC3G and APOBEC3H, high levels of APOBEC3C, and undetectable levels of all other APOBEC family members.
For induction experiments, 2.5×10^5 cells were plated in a 6-well plate 1 day prior to drug treatment. PMA was then added to the media and incubated at 37° C. with 5% CO2 for six hours unless otherwise indicated. Cells were harvested, RNA was extracted, and RT-qPCR was performed as previously reported (Refsland et al. 2010, Nucleic Acids Res 38:4274-4284). For experiments utilizing inhibitors, cells were pretreated with inhibitors 30 minutes prior to PMA induction (25 ng/mL). […]

[3] = tested on: APOBEC3B promoter region; assay: Chromatin immunoprecipitation after PMA treatment of MCF10A cells; conditions: PMA for two hours, ChIP-qPCR
Procedure: Next, a series of chromatin immunoprecipitation (ChIP) experiments were performed to determine whether the canonical or noncanonical NFκB pathway is responsible for upregulating APOBEC3B. Primer sets were designed for each of the predicted NFκB binding sites near the APOBEC3B transcriptional start site, as well as a control set in the promoter region of NFKBIA (FIG. 3E). ChIP was performed for RELA, RELB, RNA POL II (positive control), and isotype matched IgG (negative control). RELA, RELB, and RNA POL II were all bound to the NFKBIA promoter following PMA treatment (FIG. 3F). In addition, RNA POL II strongly bound to the APOBEC3B gene near the transcriptional start site (FIG. 3F). Also, RELB bound both near the transcriptional start site and at sites 4 and 5, which are located in intron 2 and too close together to be distinguished by this procedure. Binding also may occur at lower levels at site 3 in intron 1, but the IgG signal was too high to distinguish background from actual binding. These ChIP data strongly implicate the noncanonical NFκB pathway, specifically RELB (and not RELA), in directly inducing APOBEC3B transcription in response to PMA activation of PKC.
MCF10A cells were treated with either DMSO or 25 ng/mL PMA for two hours. Cross-linking was performed with 1% formaldehyde for 10 minutes at room temperature and quenched with 150 mM glycine. […]

[4] = tested on: PKCα (PRKCA); assay: RNA sequencing of PMA-treated MCF10A cells, PKC isoforms; conditions: RNAseq, in comparison to DMSO
Procedure: (§3) Two sets of MCF10A cells in duplicate were treated every eight hours with media supplemented with PMA or DMSO for 48 hours. At 48 hours, RNA was extracted using an RNeasy Mini Kit (Qiagen, Hilden, Germany). Total RNA was submitted to the University of Minnesota Genomics Center for sequencing on the Illumina HiSeq 2000 platform. Raw reads were analyzed using both DESeq2 (Love et al., 2014, Genome Biol. 15:550) and the Tuxedo suite (Trapnell et al., 2012, Nat Protoc. 7:562-578) to identify changes in mRNA expression in PMA treated versus untreated cells.

[5] = tested on: RELA, NFKB1, RELB and NFKB2; assay: RNA sequencing of PMA-treated MCF10A cells, NFκB components; conditions: RNAseq
Procedure: as §3

[6] = tested on: APOBEC3B; assay: PMA induction of APOBEC3B mRNA in MCF10A cells, RT-qPCR
Procedure: as §2, §1

[7] = tested on: cancer cell lines; assay: Cell cycle and viability of AEB071-treated cancer cell lines; conditions: 10 μM, 48 hours, data not shown
Procedure: (§4) Each line was treated for 48 hours with 10 μM AEB071, and then APOBEC3B mRNA and protein levels were quantified by RT-qPCR and immunoblotting. As above, no effects on the cell cycle or cell viability were observed (data not shown). This is important since higher concentrations of AEB071 are known to cause cell cycle perturbations and apoptosis in certain cell types. APOBEC3B mRNA levels were reduced by more than half in 7/16 cell lines, including the breast cancer cell lines MDA-MB-468, MDA-MB-453, and HCC1806, the ovarian cancer cell line OVCAR5, and the head/neck lines SQ-20B, JSQ3, and TR146 (FIG. 4B, histogram). Changes of protein levels largely mirrored the mRNA results (FIG. 4B, immunoblot).

[8] = tested on: APOBEC3B; assay: Endogenous APOBEC3B expression in cancer cell lines treated with PKC inhibitor; conditions: 10 μM, 48 hours; breast, ovarian, bladder and head/neck cancer cell lines
Procedure: Four breast cancer cell lines, four ovarian cancer cell lines, four bladder cancer cell lines, and four head/neck cancer cell lines were analyzed to determine whether the constitutively high levels of endogenous APOBEC3B observed in many human cancer cell lines occurs through the PKC pathway. The selected cell lines expressed a 10-fold range of endogenous APOBEC3B mRNA levels (FIG. 4A).
as §4

[9] = tested on: MCF10A cells; assay: Morphology and viability of inhibitor-treated MCF10A cells; conditions: low concentrations used (5 μM and around), data not shown
Procedure: PMA is a well-known agonist of PKC, but it also affects other cellular processes. To determine whether APOBEC3B induction by PMA occurs through PKC signal transduction or an alternative mechanism, a panel of existing PKC inhibitors that vary with respect to class selectivity were analyzed. MCF10A cells were pre-treated for 30 minutes with varying concentrations of the pan-PKC inhibitor G66983 (Gschwendt et al., FEBS Lett. 392(2):77-80, 1996) and then treated for six hours with PMA (25 ng/mL). […] APOBEC3B was suppressed to background levels with 5 μM G66983, as well as higher concentrations (FIG. 2A). […] As additional controls, MCF10A cells were pretreated in parallel with the phosphoinositol 3 kinase (PI3K) inhibitor, LY294002, and the mitogen-activated protein kinase kinase (MEK) inhibitor, U0126, prior to PMA induction (FIGS. 2B and 2C).

[10] = 30-minute pretreatment, then PMA 25 ng/mL for six hours

For `C[C@@H]1C[C@@H]([C@H](O)CC2CC(=O)NC(=O)C2)C(=O)[C@@H](C)C1` [cyclohexamide], the “effect on kinetics of APOBEC3B upregulation by PMA” value ([1]; 30-minute pretreatment with 10 μg/mL cyclohexamide) was “not affected”.
In the case of `Cn1c2ccccc2c2c3c(c4c5ccccc5n(CCC#N)c4c21)CNC3=O` [Go6976], the “effect on PMA-induced APOBEC3B induction” value [1, 10] was “inhibited”.
For `N#CC(=C(/N)Sc1ccccc1N)/C(C#N)=C(\N)Sc1ccccc1N` [U0126], the “effect on PMA-induced APOBEC3B induction” value [1, 10] was “no suppression” and the “effect on PMA-induced APOBEC3B induction” value ([1]; 30-minute pretreatment, then PMA 25 ng/mL for six hours, listed as UO126) was “not”.
For `CCCCCCCCCCCCCC(=O)O[C@@H]1[C@@H](C)[C@@]2(O)[C@@H](C=C(CO)C[C@]3(O)C(=O)C(C)=C[C@@H]23)[C@@H]2C(C)(C)[C@]12OC(C)=O` [PMA, phorbol 12-myristate 13-acetate], the “changes in expression levels of other APOBEC family members” value [2] was “no detectable changes”, the “recruitment of RELB and p105/p52 to the APOBEC3B promoter region” value [3] was “specifically and robustly recruited” and the “PKCα mRNA levels after PMA treatment” value [4] was “unchanged”. For the same compound, the “expression levels of canonical and noncanonical NFκB components after PMA treatment” value [5] was “unaffected”, the “time after treatment at which significant APOBEC3B mRNA induction was detected” value ([6]; PMA 25 ng/ml) was 30 min and the “time post-treatment by which maximal APOBEC3B mRNA levels were observed” value ([6]; PMA 25 ng/ml) was “three”. The “PMA concentration at which APOBEC3B induction was near maximal” value ([6]; dose response) was 25 ng/mL and the “lowest PMA concentration that induced APOBEC3B” value ([6]; dose response) was 1 ng/mL.
For `Cc1ccc(S(=O)(=O)/C=C/C#N)cc1` [BAY 11-7082], the “effect on PMA-induced APOBEC3B induction” value [1, 10] was “dose responsive inhibition; also recorded: strong dose-responsive drops”.
In the case of `CN1CCN(c2nc(C3=C(c4c[nH]c5ccccc45)C(=O)NC3=O)c3ccccc3n2)CC1` [AEB071], the “potency relative to G66983 in suppressing APOBEC3B induction” value [1] was “approximately 10 fold”, the “effect on PMA-induced APOBEC3B induction” value [1, 10] was “inhibited; also recorded: clear dose dependent suppression” and the “concentration causing complete suppression of APOBEC3B induction” value ([1]; pretreatment, then PMA) was 500 nM. The “effects on the cell cycle or cell viability” value [7] was “no effects” and the “cell lines in which APOBEC3B mRNA levels were reduced by more than half” value [8] was 7/16.
With `COc1ccc2c(c1)c(C1=C(c3c[nH]c4ccccc34)C(=O)NC1=O)cn2CCCN(C)C` [G66983] the “concentration at which APOBEC3B was suppressed to background levels” value [1, 10] was 5 µM, the “effect on PMA-induced APOBEC3B induction” value [1, 10] was “dose responsive suppression” and the “effect on PMA-induced APOBEC3B induction” value ([1]; 30-minute pretreatment, then PMA 25 ng/mL for six hours, listed as Go6983) was “inhibited”. The “morphological defects or viability issues” value [9] was “No morphological defects or viability issues”.
In the case of `CC(C)C[C@@H](C=O)NC(=O)[C@H](CC(C)C)NC(=O)[C@H](CC(C)C)NC(=O)OCc1ccccc1` [MG132] (Cbz-Leu-Leu-Leu-aldehyde), the “effect on PMA-induced APOBEC3B induction” value [1, 10] was “dose responsive inhibition; also recorded: decreased in a dose dependent manner”.
In the case of `NC(=O)Nc1sc(-c2ccc(F)cc2)cc1C(N)=O` [TPCA-1], the “effect on PMA-induced APOBEC3B induction” value [1, 10] was “near the IC50 for IKKα, not IKKβ”.
`CN(C)CCCn1cc(C2=C(c3c[nH]c4ccccc34)C(=O)NC2=O)c2ccccc21` [BIM-1] was tested, and the “effect on PMA-induced APOBEC3B induction” value [1, 10] was “inhibited”.
